These results are taken from paper PMC7827406, “Structure–Activity Relationship (SAR) Study of Spautin-1 to Entail the Discovery of Novel NEK4 Inhibitors” (International Journal of Molecular Sciences, 2021).

Test in all cases: biochemical
Set-up in all cases: Eurofins KinaseProfiler full panel at Km ATP, residual kinase activity (%) relative to DMSO

Test [1] has as its target T1, PKCε(h) (Homo sapiens, UniProt Q02156).
T1 construct: gene PRKCE
T1 sequence (Q02156 1-737): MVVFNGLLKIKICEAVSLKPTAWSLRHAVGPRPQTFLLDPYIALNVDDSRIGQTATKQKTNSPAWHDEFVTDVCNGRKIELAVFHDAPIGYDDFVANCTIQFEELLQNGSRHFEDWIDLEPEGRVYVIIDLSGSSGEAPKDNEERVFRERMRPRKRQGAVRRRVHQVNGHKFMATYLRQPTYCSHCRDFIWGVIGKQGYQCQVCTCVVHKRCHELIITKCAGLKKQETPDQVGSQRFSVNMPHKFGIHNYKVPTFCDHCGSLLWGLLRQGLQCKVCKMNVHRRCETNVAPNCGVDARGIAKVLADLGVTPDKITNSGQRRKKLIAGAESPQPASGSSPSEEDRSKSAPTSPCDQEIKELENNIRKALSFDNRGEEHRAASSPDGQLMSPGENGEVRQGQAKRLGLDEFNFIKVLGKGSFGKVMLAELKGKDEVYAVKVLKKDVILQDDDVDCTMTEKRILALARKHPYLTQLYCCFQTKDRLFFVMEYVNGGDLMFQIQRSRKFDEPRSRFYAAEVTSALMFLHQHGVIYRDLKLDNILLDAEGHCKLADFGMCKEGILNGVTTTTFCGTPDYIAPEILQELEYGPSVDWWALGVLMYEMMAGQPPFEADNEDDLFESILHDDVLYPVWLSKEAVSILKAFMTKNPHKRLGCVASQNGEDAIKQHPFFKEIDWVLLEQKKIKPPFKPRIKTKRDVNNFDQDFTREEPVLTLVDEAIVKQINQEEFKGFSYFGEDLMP
An outline of the steps: (§1)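 Two 10 µM single-concentration screens were run: a competition-binding screen, in which DNA-tagged kinase bound to immobilized ligands was quantified by qPCR, and a radiometric activity panel at Km ATP. Each is expressed as residual kinase activity (%).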

For test [2], the target named is T2, GRK1(h) (Homo sapiens, UniProt Q15835).
T2 sequence (Q15835 1-563): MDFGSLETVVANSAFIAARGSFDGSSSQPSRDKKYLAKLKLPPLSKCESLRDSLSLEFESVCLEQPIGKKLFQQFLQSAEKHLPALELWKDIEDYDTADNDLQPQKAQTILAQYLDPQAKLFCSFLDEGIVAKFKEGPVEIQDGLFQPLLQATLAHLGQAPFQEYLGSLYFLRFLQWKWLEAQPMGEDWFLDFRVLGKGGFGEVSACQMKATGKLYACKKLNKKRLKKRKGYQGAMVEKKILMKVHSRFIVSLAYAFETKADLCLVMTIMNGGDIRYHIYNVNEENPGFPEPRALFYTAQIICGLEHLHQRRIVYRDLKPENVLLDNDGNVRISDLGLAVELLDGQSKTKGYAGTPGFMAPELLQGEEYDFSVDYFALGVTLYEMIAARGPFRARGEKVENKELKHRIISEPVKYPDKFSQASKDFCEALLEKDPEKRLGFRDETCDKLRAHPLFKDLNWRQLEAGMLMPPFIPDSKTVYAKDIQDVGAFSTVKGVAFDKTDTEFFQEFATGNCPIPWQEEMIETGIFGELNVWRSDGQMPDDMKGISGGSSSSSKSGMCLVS
An outline of the steps: as §1

The target of test [3] is WNK2(h) (Homo sapiens, UniProt Q9Y3S1). A digest of the protocol:
as §1

For test [4], the target named is T3, CK1ε(h) (Homo sapiens, UniProt P49674).
T3 construct: gene CSNK1E
An outline of the steps: as §1

For test [5], the target named is ALK(h) (Homo sapiens, UniProt Q9UM73). A digest of the protocol: as §1
The target of test [6] is T4, IKKε(h) (Homo sapiens, UniProt Q14164).
T4 construct: gene IKBKE
T4 sequence (Q14164 1-716): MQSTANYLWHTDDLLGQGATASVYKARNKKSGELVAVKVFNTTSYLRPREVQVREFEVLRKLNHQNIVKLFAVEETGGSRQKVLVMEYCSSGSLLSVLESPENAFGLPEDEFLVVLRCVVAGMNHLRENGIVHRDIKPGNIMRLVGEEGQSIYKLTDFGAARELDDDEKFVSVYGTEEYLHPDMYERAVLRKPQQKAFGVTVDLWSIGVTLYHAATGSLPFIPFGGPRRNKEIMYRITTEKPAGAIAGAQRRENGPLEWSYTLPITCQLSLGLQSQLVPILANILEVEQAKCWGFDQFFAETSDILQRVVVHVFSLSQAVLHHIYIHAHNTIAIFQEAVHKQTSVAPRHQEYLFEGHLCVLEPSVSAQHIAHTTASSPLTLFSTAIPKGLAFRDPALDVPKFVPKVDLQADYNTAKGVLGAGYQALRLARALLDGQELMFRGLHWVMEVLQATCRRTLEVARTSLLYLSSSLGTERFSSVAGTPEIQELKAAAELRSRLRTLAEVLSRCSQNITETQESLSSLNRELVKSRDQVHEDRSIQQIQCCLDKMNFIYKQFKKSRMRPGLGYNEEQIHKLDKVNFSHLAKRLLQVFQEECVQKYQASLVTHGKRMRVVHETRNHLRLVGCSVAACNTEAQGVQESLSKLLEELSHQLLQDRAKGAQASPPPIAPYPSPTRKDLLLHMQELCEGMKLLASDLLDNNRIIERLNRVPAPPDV
A digest of the protocol: as §1

[7] abbreviates: read-out: Residual activity (%) 5at.
Setting [8] is: read-out: Residual activity (%) 5ay.
Setting [9] is: read-out: Residual activity (%) 5as.
Where [10] appears, read: read-out: Residual activity (%) Spautin-1 5aa.

Where two headings read alike, the source gives them in different places.

ALK(h), sequence (Q9UM73 whole entry): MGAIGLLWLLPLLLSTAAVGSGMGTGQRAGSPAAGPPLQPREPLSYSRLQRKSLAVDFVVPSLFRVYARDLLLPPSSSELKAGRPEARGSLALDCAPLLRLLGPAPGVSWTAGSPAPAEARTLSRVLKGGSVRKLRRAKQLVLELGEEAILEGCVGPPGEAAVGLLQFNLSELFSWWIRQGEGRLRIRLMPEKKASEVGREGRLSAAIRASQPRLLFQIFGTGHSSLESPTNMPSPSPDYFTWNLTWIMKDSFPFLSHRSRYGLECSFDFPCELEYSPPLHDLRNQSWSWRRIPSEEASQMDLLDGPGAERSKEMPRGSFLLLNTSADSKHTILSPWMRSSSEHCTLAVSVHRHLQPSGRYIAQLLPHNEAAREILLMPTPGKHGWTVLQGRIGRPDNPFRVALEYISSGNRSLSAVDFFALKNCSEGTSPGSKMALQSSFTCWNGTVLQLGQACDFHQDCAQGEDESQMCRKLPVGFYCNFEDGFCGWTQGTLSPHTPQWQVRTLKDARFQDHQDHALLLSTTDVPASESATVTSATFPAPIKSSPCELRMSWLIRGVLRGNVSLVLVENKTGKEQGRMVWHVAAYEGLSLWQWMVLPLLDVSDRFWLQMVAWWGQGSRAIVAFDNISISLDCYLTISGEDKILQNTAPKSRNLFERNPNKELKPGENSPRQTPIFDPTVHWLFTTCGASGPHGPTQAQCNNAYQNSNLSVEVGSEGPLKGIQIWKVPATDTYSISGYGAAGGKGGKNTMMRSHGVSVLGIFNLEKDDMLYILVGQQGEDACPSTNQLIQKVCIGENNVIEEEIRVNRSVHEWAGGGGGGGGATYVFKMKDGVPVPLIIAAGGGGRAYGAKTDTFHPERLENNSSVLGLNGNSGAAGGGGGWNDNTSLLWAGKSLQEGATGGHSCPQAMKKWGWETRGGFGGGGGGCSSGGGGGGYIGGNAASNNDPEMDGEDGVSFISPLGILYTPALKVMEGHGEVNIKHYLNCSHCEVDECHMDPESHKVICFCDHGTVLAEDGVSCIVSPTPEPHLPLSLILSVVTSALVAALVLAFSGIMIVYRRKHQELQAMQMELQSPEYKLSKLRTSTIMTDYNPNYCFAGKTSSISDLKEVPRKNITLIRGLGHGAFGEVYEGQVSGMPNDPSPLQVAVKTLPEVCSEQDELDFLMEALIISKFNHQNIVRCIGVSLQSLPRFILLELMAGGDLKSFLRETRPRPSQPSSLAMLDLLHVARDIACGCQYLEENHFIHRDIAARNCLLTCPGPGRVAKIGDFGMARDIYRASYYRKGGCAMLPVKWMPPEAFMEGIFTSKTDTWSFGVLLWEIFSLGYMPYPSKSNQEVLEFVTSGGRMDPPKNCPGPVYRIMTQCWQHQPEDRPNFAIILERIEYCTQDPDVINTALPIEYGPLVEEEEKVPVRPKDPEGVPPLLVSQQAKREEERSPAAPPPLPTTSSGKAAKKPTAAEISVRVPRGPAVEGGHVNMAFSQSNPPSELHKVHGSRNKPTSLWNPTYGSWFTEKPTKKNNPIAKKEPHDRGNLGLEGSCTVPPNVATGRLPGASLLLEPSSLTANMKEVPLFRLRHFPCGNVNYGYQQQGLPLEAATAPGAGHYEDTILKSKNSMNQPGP
T3 sequence (P49674 whole entry): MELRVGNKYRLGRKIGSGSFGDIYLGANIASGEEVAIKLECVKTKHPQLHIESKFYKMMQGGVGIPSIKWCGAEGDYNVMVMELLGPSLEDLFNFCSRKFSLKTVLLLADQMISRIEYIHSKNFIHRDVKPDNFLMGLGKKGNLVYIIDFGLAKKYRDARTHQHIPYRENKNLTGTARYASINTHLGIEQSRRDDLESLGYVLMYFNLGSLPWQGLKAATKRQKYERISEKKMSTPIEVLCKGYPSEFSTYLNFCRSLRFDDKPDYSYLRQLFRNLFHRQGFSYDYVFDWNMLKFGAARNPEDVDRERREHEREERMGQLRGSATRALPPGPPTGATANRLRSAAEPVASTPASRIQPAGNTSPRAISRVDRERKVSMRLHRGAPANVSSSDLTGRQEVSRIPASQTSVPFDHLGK
WNK2(h), sequence (Q9Y3S1 whole entry): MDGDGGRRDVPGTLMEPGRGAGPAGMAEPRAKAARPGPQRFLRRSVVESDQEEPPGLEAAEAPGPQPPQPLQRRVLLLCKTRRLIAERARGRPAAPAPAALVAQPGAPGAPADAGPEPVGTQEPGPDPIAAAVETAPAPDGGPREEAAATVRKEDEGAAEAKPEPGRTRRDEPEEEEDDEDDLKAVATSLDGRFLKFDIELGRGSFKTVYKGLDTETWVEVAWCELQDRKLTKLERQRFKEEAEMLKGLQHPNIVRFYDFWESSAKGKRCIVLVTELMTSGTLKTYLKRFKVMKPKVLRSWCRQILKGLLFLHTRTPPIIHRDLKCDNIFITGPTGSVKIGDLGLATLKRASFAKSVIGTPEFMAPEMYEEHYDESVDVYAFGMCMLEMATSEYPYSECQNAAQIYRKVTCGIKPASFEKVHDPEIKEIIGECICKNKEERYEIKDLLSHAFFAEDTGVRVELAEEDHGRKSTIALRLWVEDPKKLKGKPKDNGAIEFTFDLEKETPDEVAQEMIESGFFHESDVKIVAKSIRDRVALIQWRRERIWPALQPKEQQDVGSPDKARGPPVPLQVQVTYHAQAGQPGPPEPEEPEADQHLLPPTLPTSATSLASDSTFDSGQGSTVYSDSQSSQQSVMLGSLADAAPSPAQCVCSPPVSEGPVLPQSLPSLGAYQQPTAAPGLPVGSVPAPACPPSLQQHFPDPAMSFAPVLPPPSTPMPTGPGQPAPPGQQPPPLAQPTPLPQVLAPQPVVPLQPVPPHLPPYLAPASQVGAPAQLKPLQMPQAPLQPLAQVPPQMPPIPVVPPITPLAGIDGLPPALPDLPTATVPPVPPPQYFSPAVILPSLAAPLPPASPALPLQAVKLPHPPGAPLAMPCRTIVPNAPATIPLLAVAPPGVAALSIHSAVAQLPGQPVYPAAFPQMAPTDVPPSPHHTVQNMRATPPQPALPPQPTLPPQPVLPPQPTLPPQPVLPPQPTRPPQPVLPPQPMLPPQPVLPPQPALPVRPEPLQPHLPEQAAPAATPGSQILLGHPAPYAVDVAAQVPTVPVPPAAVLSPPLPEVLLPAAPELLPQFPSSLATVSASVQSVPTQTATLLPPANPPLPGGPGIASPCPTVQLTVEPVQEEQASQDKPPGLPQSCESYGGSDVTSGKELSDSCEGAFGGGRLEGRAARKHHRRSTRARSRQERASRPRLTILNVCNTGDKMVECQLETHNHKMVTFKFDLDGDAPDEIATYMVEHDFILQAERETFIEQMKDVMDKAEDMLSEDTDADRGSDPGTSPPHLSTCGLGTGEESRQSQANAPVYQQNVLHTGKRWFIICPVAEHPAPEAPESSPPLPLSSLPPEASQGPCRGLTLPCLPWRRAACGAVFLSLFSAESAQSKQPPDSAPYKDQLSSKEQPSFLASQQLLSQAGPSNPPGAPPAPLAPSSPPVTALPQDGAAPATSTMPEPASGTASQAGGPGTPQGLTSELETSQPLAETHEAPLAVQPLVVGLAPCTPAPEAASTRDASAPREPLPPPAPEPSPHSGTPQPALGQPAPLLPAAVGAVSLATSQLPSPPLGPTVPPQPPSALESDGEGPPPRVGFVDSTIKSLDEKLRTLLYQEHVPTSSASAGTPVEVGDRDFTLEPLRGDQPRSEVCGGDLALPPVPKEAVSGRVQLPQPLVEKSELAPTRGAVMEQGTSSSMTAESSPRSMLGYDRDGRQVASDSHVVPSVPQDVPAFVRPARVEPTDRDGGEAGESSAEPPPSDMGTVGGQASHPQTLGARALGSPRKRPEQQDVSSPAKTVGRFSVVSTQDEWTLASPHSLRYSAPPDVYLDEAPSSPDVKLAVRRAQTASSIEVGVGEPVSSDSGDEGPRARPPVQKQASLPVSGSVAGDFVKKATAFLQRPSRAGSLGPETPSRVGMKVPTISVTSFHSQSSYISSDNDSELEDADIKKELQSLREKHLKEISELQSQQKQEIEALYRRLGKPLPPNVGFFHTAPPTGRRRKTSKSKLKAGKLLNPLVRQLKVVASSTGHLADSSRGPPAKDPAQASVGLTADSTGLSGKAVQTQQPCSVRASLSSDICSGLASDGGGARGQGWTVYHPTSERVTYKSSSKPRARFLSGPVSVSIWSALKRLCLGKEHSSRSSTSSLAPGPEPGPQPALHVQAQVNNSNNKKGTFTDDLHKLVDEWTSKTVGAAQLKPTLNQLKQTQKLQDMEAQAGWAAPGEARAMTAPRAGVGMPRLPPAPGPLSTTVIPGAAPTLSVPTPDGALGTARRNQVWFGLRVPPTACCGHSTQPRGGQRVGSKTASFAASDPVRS

Consider `Fc1ccc2ncnc(NCCc3ccc(Cl)cc3)c2c1` [5at, N-[2-(4-Chlorophenyl)Ethyl]-6-Fluoro-4-Quinazolinamine], for which the remaining activity at 10 µM was found to be 86% in test [1] (setting [7]); 81% in test [2] (setting [7]); 76% in test [3] (setting [7]); 82% in test [4] (setting [7]); 86% in test [5] (setting [7]); 79% in test [6] (setting [7]).

With `COc1ccc2ncnc(Nc3cccc(F)c3)c2c1` [5ay, N-(3-Fluorophenyl)-6-Methoxy-4-Quinazolinamine], the remaining activity at 10 µM turned out to be 93% in test [1] (setting [8]); 88% in test [2] (setting [8]); 71% in test [3] (setting [8]); 78% in test [4] (setting [8]); 72% in test [5] (setting [8]); 67% in test [6] (setting [8]).

On to `Fc1ccc(CCNc2ncnc3ccc(F)cc23)cc1` [5as, 6-Fluoro-N-[2-(4-Fluorophenyl)Ethyl]-4-Quinazolinamine], for which the remaining activity at 10 µM turned out to be 93% in test [1] (setting [9]); 79% in test [2] (setting [9]); 74% in test [3] (setting [9]); 76% in test [4] (setting [9]); 59% in test [5] (setting [9]); 72% in test [6] (setting [9]).

Turning to `Fc1ccc(CNc2ncnc3ccc(F)cc23)cc1` [5aa, 6-Fluoro-N-(4-fluorobenzyl)-4-Quinazolinamine], the remaining activity at 10 µM in test [1] (setting [10]) is 95%; in test [2] (setting [10]), 101%; in test [3] (setting [10]), 77%; in test [4] (setting [10]), 87%; in test [5] (setting [10]), 82%; in test [6] (setting [10]), 64%.
